Reference: patent US20070092551A1, “Therapeutic agent” (TAKARA BIO INC., priority 2003, published 2007)
Read-outs that look alike come from different tables or passages of the source.

Tested on: mature adipocytes (3T3-L1 cells)
Experiment: Enhancing action on glucose uptake (2-deoxyglucose) into mature adipocytes
Format: cell-based
Details: Mus musculus
[1] = 3T3-L1, 10 μM, X=(S−N)/(P−N) of 2-deoxyglucose uptake, P=insulin 1 μg/mL, read-out: Enhancing Action on Glucose Uptake
[2] = 3T3-L1, 30 μM, X=(S−N)/(P−N) of 2-deoxyglucose uptake, P=insulin 1 μg/mL, read-out: Enhancing Action on Glucose Uptake
[3] = 3T3-L1, read-out: Enhancing Action on Glucose Uptake

SMILES | activation at 3 µM (3T3-L1, 3 μM, X=(S−N)/(P−N) of 2-deoxyglucose uptake, P=insulin 1 μg/mL, read-out: Enhancing Action on Glucose Uptake) [%] | activation at 10 µM [1] [%] | activation at 30 µM [2] [%] | activation at 3 µM [3] [%] | activation at 10 µM [3] [%] | activation at 30 µM [3] [%]
COc1ccc(C(=O)/C=C/c2ccc(O)cc2)c(O)c1C/C=C(\C)CCC=C(C)C [Xanthoangelol F, 4,2′-Dihydroxy-3′-geranyl-4′-methoxychalcone] | 30 to 60 | > 100 | > 100 |  |  | 
COc1ccc(C(=O)/C=C/c2ccc(O)cc2)c(O)c1CC=C(C)C [4-Hydroxyderricin, 4,2′-Dihydroxy-3′-prenyl-4′-methoxychalcone] |  |  |  | 60 to 100 | > 100 | > 100
CC(C)=CCC/C(C)=C/Cc1c(O)ccc(C(=O)/C=C/c2ccc(O)cc2)c1O [Xanthoangelol, 4,2′,4′-Trihydroxy-3′-geranylchalcone] |  | 30 to 60 | > 100 |  |  | 
COc1ccc(C(=O)/C=C/c2ccc(O)cc2)c2c1CC(O)C(C)(C)O2 (stereo not drawn) [Xanthoangelol H] |  |  | 30 to 60 |  |  | 
